The values that follow come from article PMC5559341 (ACS chemical neuroscience, 2017).

As usually defined, the EC50 is the concentration giving half of the maximal effect. Low values mean an effect from little substance, high ones a need for much substance.

Among the targets are GluN1/2B (Rattus norvegicus, UniProt P35439+Q00960); GluN1/2C (Rattus norvegicus, UniProt P35439+Q00961); GluN1/2D (Rattus norvegicus, UniProt P35439+Q62645); GluN1/2A (Rattus norvegicus, UniProt P35439).
What all share (test): TEVC electrophysiology, Xenopus oocytes
Common to all, as to format: cell-based

Molecules are shown by their SMILES.

Turning to `N[C@@H](COCc1ccccc1)C(=O)O` [8b], the EC50 on GluN1/2B, at GluN1/2C and at GluN1/2D was above 300 µM in each case.

Regarding `N[C@@H](CSCc1ccccc1)C(=O)O` [11a, S-benzyl substituted L-cysteine], the EC50 was 87 µM at GluN1/2C and above 300 µM at GluN1/2D.

Regarding `CCCCSC[C@H](N)C(=O)O` [10a, S-Butyl L-cysteine], the EC50 on GluN1/2C and at GluN1/2D was above 300 µM in each case.

Take `CCCCC(=O)NC[C@@H](N)C(=O)O` [13a, pentanamido analogue 13a]: the EC50 on GluN1/2A was above 300 µM; on GluN1/2B it was above 300 µM; on GluN1/2C, 206 µM; on GluN1/2D, above 300 µM.

Take `N[C@H](CSCc1ccccc1)C(=O)O` [11b, S-benzylated D-cysteine]: the concentration for a half-maximal effect (EC50) on GluN1/2C and on GluN1/2D was above 300 µM in each case.

In the case of `CCCCC(=O)NC[C@H](N)C(=O)O` [13b], the half-maximal effective concentration (EC50) at GluN1/2C and at GluN1/2D was above 300 µM throughout.

As to `CCCCSC[C@@H](N)C(=O)O` [10b, S-Butyl D-cysteine], the EC50 on GluN1/2B, on GluN1/2C and at GluN1/2D was above 300 µM throughout.
